ChEMBL document CHEMBL4145544, “Discovery and optimization of 1-(1H-indol-1-yl)ethanone derivatives as CBP/EP300 bromodomain inhibitors for the treatment of castration-resistant prostate cancer” (Eur J Med Chem, 2018)
pIC50: −log10 of the molar value. Active and inactive are the calls of the source. No cut-off for these calls is given here.

How the values were obtained:
[1] = biological target: T1, Histone acetyltransferase KAT2B (Homo sapiens, UniProt Q92831); experiment: Inhibition of biotinylated-H4KAc4 binding to human His6-tagged PCAF (G715 to D831 residues) expressed in Escherichia coli BL21(DE3) after 2.5 hrs by luminescence-based AlphaScreen assay
Target sequence in this assay (Q92831 whole entry, the tested form may be a part): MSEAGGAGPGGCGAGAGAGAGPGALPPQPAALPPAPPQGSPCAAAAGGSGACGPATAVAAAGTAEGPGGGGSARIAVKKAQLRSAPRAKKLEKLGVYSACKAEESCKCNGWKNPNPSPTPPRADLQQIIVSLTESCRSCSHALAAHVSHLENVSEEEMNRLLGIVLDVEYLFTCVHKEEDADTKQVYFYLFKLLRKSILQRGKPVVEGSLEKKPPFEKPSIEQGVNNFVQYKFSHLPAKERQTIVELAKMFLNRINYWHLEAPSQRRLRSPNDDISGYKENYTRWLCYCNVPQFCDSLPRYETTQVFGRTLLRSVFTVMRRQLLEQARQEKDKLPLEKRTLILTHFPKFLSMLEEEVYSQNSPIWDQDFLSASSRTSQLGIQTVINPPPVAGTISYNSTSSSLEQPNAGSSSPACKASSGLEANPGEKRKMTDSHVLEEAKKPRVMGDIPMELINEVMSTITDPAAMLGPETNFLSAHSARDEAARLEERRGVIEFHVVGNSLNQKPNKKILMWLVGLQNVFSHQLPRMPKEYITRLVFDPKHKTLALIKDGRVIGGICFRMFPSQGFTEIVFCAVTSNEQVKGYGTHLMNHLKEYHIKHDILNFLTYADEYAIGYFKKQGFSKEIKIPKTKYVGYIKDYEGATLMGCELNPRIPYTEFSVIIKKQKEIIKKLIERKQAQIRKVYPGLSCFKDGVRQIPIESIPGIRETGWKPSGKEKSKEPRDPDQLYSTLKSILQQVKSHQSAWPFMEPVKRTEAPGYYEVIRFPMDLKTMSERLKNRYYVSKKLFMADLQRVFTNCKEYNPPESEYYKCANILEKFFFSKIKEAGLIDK

[2] = biological target: T2, Bromodomain-containing protein 9 (Homo sapiens, UniProt Q9H8M2); experiment: Inhibition of biotinylated-H4KAc4 binding to human His6-tagged BRD9 (L14 to Q134 residues) expressed in Escherichia coli BL21(DE3) after 2.5 hrs by luminescence-based AlphaScreen assay
T2 sequence (Q9H8M2 whole entry): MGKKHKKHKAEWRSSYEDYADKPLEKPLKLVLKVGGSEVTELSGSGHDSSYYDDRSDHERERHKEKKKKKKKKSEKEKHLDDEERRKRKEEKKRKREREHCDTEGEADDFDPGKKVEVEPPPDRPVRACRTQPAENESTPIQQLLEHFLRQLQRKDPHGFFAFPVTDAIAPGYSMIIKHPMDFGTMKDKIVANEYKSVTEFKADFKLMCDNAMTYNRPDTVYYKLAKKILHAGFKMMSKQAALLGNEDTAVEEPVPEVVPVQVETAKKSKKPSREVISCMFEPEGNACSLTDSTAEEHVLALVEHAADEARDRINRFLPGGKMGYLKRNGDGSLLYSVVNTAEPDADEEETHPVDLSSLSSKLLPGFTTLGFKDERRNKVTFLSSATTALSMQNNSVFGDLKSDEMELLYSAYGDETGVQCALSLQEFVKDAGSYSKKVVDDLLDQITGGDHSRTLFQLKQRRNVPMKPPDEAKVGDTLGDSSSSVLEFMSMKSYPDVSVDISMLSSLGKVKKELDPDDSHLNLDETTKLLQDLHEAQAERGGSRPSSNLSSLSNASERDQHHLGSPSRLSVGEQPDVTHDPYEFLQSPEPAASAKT

[3] = biological target: T3, Histone acetyltransferase p300 (Homo sapiens, UniProt Q09472); experiment: Inhibition of biotinylated-H4KAc4 binding to human His6-tagged EP300 (A1040 to G1161 residues) expressed in Escherichia coli BL21(DE3) after 2.5 hrs by luminescence-based AlphaScreen assay
[4] = biological target: T4, Transcription initiation factor TFIID subunit 1 (Homo sapiens, UniProt P21675); experiment: Inhibition of biotinylated-H4KAc4 binding to human His6-tagged TAF-1 (R1377 to D1503 residues) expressed in Escherichia coli BL21(DE3) after 2.5 hrs by luminescence-based AlphaScreen assay
CREB-binding protein [5] = biological target: T5, CREB-binding protein (Homo sapiens, UniProt Q92793); experiment: Inhibition of biotinylated-H4KAc4 binding to human His6-tagged CBP (R1081 to G1197 residues) expressed in Escherichia coli BL21(DE3) after 2.5 hrs by luminescence-based AlphaScreen assay
[6] = biological target: T6, Bromodomain adjacent to zinc finger domain protein 2B (Homo sapiens, UniProt Q9UIF8); experiment: Inhibition of biotinylated-H4KAc4 binding to human His6-tagged BAZ2B (S1858 to S1972 residues) expressed in Escherichia coli BL21(DE3) after 2.5 hrs by luminescence-based AlphaScreen assay
[7] = biological target: T7, Bromodomain-containing protein 4 (Homo sapiens, UniProt O60885); experiment: Inhibition of biotinylated-H4KAc4 binding to human His6-tagged BRD4 bromodomain-1 (N44 to E168 residues) expressed in Escherichia coli BL21(DE3) after 2.5 hrs by luminescence-based AlphaScreen assay
[8] = biological target: T8, Transcription intermediary factor 1-alpha (Homo sapiens, UniProt O15164); experiment: Inhibition of biotinylated-H4KAc4 binding to human His6-tagged TIF-1 (G896 to E1014 residues) expressed in Escherichia coli BL21(DE3) after 2.5 hrs by luminescence-based AlphaScreen assay
T8 sequence (O15164 whole entry): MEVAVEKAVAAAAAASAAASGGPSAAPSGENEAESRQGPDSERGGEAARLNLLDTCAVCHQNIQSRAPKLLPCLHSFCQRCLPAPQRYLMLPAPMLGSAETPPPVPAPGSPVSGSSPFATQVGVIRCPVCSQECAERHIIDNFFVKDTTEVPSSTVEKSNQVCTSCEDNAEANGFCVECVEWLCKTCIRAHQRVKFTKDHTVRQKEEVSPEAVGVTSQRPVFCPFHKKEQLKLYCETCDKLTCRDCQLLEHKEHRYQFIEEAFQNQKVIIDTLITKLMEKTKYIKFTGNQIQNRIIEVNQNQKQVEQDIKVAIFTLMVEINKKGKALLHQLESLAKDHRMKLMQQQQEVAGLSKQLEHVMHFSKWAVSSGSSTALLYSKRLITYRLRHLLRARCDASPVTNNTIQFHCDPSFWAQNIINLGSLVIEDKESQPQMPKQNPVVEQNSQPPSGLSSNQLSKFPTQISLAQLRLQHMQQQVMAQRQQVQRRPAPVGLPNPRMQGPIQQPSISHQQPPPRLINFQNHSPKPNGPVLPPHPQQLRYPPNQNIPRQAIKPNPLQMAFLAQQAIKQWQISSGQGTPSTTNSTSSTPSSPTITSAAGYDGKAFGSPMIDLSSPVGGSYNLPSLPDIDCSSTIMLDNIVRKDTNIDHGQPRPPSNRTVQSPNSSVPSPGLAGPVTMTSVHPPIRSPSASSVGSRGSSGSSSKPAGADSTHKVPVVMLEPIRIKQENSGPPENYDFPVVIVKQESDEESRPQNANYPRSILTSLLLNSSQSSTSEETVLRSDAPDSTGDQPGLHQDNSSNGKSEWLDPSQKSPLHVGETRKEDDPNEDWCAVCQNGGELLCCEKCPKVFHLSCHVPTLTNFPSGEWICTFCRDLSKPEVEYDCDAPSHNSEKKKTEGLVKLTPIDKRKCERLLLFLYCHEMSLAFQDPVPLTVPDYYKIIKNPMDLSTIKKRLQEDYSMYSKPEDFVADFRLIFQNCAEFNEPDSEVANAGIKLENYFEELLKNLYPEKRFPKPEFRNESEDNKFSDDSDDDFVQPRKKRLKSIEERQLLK

CWR22R [9] = experiment: Anticlonogenic activity against human 22Rv1 cells at 4 uM after 14 days by crystal violet staining based assay relative to control; format: functional
LNCaP [10] = experiment: Potency index, ratio of enzalutamide IC50 to compound IC50 for antiproliferative activity against human LNCAP cells; format: functional
LNCaP [11] = experiment: Antiproliferative activity against human LNCAP cells after 72 hrs by Cell-Titer Glo assay; format: functional, cell-based; conditions: for pIC50: Homo sapiens, LNCaP, 72 h, read-out: IC50; for IC50: lncap
CWR22R [12] = experiment: Anticlonogenic activity against human 22Rv1 cells after 14 days by crystal violet staining based assay; format: functional, cell-based
LNCaP C4-2B [13] = experiment: Anticlonogenic activity against human C4-2B cells at 4 uM after 14 days by crystal violet staining based assay relative to control; format: functional
LNCaP C4-2B [14] = experiment: Anticlonogenic activity against human C4-2B cells after 14 days by crystal violet staining based assay; format: functional, cell-based
CWR22R [15] = experiment: Potency index, ratio of enzalutamide IC50 to compound IC50 for antiproliferative activity against human 22Rv1 cells; format: functional
CWR22R [16] = experiment: cells; conditions: Homo sapiens, 22Rv1, 72 h
Description: (§1) Antiproliferative activity against human 22Rv1 cells after 72 hrs by Cell-Titer Glo assay

CWR22R [17] = test system: CWR22R
Description: as §1

[18] = biological target: T6, Bromodomain adjacent to zinc finger domain protein 2B; experiment: Inhibition of biotinylated-H4KAc4 binding to human His6-tagged BAZ2B (S1858 to S1972 residues) expressed in Escherichia coli BL21(DE3) at 50 uM after 2.5 hrs by luminescence-based AlphaScreen assay relative to control
[19] = biological target: T7, Bromodomain-containing protein 4; experiment: Inhibition of biotinylated-H4KAc4 binding to human His6-tagged BRD4 bromodomain-1 (N44 to E168 residues) expressed in Escherichia coli BL21(DE3) at 50 uM after 2.5 hrs by luminescence-based AlphaScreen assay relative to control
[20] = biological target: Bromodomain-containing protein 9 (Homo sapiens) (UniProt Q9H8M2); experiment: Binding affinity to human His6-tagged BRD9 (L14 to Q134 residues) expressed in Escherichia coli BL21(DE3) assessed as change in melting temperature at 200 uM after 30 mins by SYPRO orange dye based fluorescence assay
[21] = biological target: T6, Bromodomain adjacent to zinc finger domain protein 2B; experiment: Binding affinity to human His6-tagged BAZ2B (S1858 to S1972 residues) expressed in Escherichia coli BL21(DE3) assessed as change in melting temperature at 200 uM after 30 mins by SYPRO orange dye based fluorescence assay
[22] = biological target: T1, Histone acetyltransferase KAT2B; experiment: Binding affinity to human His6-tagged PCAF (G715 to D831 residues) expressed in Escherichia coli BL21(DE3) assessed as change in melting temperature at 200 uM after 30 mins by SYPRO orange dye based fluorescence assay
[23] = biological target: Transcription intermediary factor 1-alpha (Homo sapiens) (UniProt O15164); experiment: Binding affinity to human His6-tagged TIF-1 (G896 to E1014 residues) expressed in Escherichia coli BL21(DE3) assessed as change in melting temperature at 200 uM after 30 mins by SYPRO orange dye based fluorescence assay
[24] = biological target: T4, Transcription initiation factor TFIID subunit 1; experiment: Binding affinity to human His6-tagged TAF-1 (R1377 to D1503 residues) expressed in Escherichia coli BL21(DE3) assessed as change in melting temperature at 200 uM after 30 mins by SYPRO orange dye based fluorescence assay
[25] = biological target: T3, Histone acetyltransferase p300; experiment: Binding affinity to human His6-tagged EP300 (A1040 to G1161 residues) expressed in Escherichia coli BL21(DE3) assessed as change in melting temperature at 200 uM after 30 mins by SYPRO orange dye based fluorescence assay
CREB-binding protein [26] = biological target: T5, CREB-binding protein; experiment: Binding affinity to human His6-tagged CBP (R1081 to G1197 residues) expressed in Escherichia coli BL21(DE3) assessed as change in melting temperature at 200 uM after 30 mins by SYPRO orange dye based fluorescence assay
[27] = biological target: T7, Bromodomain-containing protein 4; experiment: Binding affinity to human His6-tagged BRD4 bromodomain-1 (N44 to E168 residues) expressed in Escherichia coli BL21(DE3) assessed as change in melting temperature at 200 uM after 30 mins by SYPRO orange dye based fluorescence assay

T3 sequence (Q09472 whole entry, the tested form may be a part): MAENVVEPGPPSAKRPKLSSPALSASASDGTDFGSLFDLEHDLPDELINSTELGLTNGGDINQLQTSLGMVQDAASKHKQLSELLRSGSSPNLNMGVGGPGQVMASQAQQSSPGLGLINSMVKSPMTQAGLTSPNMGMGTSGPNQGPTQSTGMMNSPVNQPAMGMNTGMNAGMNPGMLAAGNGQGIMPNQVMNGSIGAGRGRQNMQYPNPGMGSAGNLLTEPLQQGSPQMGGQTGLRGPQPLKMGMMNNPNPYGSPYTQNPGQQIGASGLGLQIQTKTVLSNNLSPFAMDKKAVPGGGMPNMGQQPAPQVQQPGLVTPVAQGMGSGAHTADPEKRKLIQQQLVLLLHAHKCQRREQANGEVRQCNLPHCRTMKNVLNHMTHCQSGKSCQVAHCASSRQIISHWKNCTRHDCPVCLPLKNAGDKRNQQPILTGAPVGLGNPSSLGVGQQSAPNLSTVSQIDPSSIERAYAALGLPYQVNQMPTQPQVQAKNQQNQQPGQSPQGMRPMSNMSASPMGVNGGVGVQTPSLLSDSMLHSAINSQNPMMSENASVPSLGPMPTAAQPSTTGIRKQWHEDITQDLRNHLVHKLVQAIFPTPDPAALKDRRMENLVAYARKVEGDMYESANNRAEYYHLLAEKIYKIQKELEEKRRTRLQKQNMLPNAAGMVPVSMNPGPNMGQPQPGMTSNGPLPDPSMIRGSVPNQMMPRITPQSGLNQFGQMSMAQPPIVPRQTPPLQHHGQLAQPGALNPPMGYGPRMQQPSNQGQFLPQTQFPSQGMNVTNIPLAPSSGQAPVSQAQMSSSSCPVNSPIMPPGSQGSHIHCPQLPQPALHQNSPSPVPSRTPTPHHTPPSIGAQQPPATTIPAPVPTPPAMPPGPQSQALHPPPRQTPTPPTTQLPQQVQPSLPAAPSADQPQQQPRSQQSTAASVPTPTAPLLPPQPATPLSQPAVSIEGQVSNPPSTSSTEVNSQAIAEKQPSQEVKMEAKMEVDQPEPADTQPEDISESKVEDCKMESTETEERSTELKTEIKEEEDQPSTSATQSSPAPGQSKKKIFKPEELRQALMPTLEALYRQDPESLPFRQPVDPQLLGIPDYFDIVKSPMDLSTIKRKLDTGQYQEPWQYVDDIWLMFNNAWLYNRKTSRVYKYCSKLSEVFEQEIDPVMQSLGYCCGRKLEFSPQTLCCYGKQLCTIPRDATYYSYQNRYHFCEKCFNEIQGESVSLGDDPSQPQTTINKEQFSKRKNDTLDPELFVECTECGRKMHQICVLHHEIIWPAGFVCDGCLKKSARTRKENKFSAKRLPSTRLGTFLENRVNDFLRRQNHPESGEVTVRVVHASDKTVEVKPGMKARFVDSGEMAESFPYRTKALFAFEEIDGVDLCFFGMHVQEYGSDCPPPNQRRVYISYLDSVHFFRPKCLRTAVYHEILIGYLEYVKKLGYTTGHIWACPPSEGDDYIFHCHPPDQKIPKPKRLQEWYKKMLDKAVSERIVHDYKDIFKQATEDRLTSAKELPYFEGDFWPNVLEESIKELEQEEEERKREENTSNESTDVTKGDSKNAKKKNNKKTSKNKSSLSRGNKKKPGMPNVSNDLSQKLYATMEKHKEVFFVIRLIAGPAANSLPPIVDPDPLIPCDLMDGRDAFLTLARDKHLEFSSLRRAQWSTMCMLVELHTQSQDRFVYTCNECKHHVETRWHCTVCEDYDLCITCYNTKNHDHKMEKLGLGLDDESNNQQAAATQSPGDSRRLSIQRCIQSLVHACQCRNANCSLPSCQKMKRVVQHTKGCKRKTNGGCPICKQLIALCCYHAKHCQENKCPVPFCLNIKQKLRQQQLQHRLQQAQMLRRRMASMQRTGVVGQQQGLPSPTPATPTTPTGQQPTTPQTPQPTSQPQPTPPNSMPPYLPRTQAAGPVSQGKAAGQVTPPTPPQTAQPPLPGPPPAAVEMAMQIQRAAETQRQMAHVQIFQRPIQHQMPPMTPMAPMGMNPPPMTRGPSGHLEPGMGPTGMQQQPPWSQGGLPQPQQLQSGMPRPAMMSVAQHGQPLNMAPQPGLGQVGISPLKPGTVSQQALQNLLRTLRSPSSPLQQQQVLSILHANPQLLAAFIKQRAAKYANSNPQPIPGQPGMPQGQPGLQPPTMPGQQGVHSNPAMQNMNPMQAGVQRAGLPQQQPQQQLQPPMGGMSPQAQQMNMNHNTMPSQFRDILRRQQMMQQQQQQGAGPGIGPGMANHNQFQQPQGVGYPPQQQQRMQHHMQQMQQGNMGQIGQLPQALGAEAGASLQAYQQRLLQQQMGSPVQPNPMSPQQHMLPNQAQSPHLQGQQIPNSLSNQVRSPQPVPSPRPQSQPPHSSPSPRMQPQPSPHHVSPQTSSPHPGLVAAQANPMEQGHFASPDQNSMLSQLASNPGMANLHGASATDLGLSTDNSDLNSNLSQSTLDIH
T4 sequence (P21675 whole entry, the tested form may be a part): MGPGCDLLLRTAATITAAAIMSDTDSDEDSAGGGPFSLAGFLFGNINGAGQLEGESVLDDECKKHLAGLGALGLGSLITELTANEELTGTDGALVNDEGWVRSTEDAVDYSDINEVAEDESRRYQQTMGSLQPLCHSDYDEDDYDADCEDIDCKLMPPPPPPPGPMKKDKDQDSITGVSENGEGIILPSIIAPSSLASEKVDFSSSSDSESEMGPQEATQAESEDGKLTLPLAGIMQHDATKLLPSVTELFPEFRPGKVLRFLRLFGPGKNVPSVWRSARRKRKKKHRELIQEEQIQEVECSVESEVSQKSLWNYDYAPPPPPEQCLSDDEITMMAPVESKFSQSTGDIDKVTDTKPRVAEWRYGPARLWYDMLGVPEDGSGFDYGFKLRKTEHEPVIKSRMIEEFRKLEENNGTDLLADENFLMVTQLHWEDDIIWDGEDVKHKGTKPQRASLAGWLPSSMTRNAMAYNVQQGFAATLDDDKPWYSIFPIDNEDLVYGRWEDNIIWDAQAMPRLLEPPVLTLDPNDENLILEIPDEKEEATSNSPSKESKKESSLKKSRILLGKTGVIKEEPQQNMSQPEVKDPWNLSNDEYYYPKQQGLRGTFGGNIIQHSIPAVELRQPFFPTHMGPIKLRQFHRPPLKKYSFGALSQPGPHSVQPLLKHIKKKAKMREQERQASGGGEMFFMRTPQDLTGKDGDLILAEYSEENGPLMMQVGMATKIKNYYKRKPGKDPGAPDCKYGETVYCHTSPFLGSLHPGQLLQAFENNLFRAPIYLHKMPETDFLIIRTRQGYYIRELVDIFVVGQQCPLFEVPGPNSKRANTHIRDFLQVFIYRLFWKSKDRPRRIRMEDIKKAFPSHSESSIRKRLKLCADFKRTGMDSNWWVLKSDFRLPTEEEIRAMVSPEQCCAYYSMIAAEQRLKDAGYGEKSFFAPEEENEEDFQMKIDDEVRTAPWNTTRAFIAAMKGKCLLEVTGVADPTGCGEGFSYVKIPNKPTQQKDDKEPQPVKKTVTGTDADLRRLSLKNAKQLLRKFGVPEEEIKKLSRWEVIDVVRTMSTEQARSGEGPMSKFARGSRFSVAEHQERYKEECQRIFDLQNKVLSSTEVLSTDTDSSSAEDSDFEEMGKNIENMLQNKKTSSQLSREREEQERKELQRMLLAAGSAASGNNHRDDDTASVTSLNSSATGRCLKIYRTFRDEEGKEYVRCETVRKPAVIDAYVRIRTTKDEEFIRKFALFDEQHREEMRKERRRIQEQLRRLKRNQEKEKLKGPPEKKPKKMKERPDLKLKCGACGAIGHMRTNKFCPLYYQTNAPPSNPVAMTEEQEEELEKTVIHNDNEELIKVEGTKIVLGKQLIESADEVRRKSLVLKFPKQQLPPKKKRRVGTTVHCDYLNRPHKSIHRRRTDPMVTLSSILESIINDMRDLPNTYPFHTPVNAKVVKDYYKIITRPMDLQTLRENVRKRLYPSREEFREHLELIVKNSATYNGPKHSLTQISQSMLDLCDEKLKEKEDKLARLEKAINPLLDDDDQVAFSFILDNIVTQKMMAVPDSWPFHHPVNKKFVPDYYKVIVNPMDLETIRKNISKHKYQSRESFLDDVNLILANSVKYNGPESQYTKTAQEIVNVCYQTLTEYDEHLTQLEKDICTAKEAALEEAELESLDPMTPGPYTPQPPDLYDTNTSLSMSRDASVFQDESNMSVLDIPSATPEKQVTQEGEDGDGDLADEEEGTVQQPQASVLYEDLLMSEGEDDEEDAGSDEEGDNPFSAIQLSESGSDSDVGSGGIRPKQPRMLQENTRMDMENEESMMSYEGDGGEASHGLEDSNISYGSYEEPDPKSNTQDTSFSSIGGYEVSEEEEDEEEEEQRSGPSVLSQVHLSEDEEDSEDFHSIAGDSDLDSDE

Row | Compound | pIC50 [1] | pIC50 [2] | pIC50 [3] | pIC50 [4] | pIC50 (CREB-binding protein [5]) | pIC50 [6] | pIC50 [7] | pIC50 [8] | Activity (CWR22R [12]) | Activity (LNCaP C4-2B [14]) | IC50 (LNCaP [11]) | IC50 (CWR22R [17]) | further results
1 | CC(=O)n1cc(C(=O)Nc2cc(COC3CCCCO3)cc(C(=O)O)c2)c2ccccc21 (centres undefined) | < 4.70 | < 4.70 | 5.60 | < 4.70 | 6.00 | < 4.70 | < 4.70 | < 4.70 |  |  |  |  | 
2 | CC(=O)n1cc(C(=O)Nc2cc(C(=O)O)cc(-c3ccco3)c2)c2ccccc21 | < 4.70 | < 4.70 | 6.01 | < 4.70 | 6.19 | 5.77 | 5.66 | 4.98 |  |  |  |  | 
3 | COc1ccc2c(c1)c(C(=O)Nc1cc(C(=O)OC(C)(C)C)cc(-c3cnn(C)c3)c1)cn2C(C)=O |  |  |  |  |  |  |  |  | Dose-dependent effect | Dose-dependent effect |  |  | Activity (CWR22R [9]): <10%; Ratio IC50 (LNCaP [10]): 17; pIC50 (LNCaP [11]): 5.89; Activity (LNCaP C4-2B [13]): <10%; Ratio IC50 (CWR22R [15]): 17; pIC50 (CWR22R [16]): 5.65
4 | COc1ccc2c(c1)c(C(=O)Nc1cc(C(=O)O)cc(-c3ccco3)c1)cn2C(C)=O | < 4.70 | < 4.70 | 5.75 | < 4.70 | 6.85 | 4.92 | < 4.70 | < 4.70 |  |  | Not Active | Not Active | 
5 | CC(=O)n1cc(C(=O)Nc2cccc(C(=O)O)c2)c2ccccc21 | < 4.70 | < 4.70 | 5.26 | < 4.70 | 5.77 | < 4.70 | < 4.70 | < 4.70 |  |  |  |  | 
6 | COc1ccc(CCc2nc3cc(-c4c(C)noc4C)ccc3n2C[C@H](C)N2CCOCC2)cc1Cl | < 4.70 | < 4.70 |  | < 4.70 |  | < 4.70 | < 4.70 | < 4.70 |  |  | Not Active | Not Active | inhibition [18]: 41%; inhibition [19]: 62%
7 | COc1ccc2c(c1)c(C(=O)Nc1cc(C(=O)O)cc(-c3cnn(C)c3)c1)cn2C(C)=O | < 4.70 | < 4.70 | 6.29 | < 4.70 | 6.80 | < 4.70 | < 4.70 | < 4.70 | inactive | inactive | Not Active | Not Active | ΔTm [20]: -0.9 °C; ΔTm [21]: 1.5 °C; ΔTm [22]: -1.5 °C; ΔTm [23]: -0.3 °C; ΔTm [24]: 0.9 °C; ΔTm [25]: 5.7 °C; ΔTm (CREB-binding protein [26]): 5.7 °C; ΔTm [27]: 1.1 °C
8 | COc1ccc2c(c1)c(C(=O)Nc1cc(C(=O)O)cc(-c3cnn(C)c3)c1F)cn2C(C)=O | < 4.70 | < 4.70 | 7.31 | < 4.70 | 7.43 | < 4.70 | < 4.70 | < 4.70 | inactive | inactive | Not Active | Not Active | ΔTm [20]: 0.9 °C; ΔTm [21]: 0.3 °C; ΔTm [22]: -0.3 °C; ΔTm [23]: 0 °C; ΔTm [24]: 0.6 °C; ΔTm [25]: 7.2 °C; ΔTm (CREB-binding protein [26]): 8.7 °C; ΔTm [27]: 1.2 °C
9 | COc1ccc2c(c1)c(C(=O)Nc1cc(C(=O)OC(C)(C)C)cc(-c3ccco3)c1)cn2C(C)=O |  |  |  |  |  |  |  |  |  |  |  |  | Ratio IC50 (LNCaP [10]): 17; pIC50 (LNCaP [11]): 5.75; Ratio IC50 (CWR22R [15]): 17; pIC50 (CWR22R [16]): 5.37
10 | CC(=O)n1cc(C(=O)Nc2cc(C(=O)O)ccc2F)c2ccccc21 | < 4.70 | < 4.70 | 5.35 | < 4.70 | 6.11 | < 4.70 | < 4.70 | < 4.70 |  |  |  |  | 
